For one compound, Activity and inhibition results are on record in ChEMBL document CHEMBL5543155, “Design, Synthesis, and Biological Evaluation of β-Trifluoroethoxydimethyl Selenides as Potent Antiosteoporosis Agents” (J Med Chem, 2024).

Calls of active or inactive are those of the source. The rule behind the calls is not given here.

Series [1] concerns BMMC. Nature of the series: Anti-osteoclastogenesis activity in M-CSF/RANKL-induced C57BL/6 mouse BMMC cells assessed as downregulation of MMP-9 gene expression incubated for 5 days by qRT-PCR analysis. It counts as functional, cell-based. The conditions noted are these: dose 0-10 µM, time 5.0 day. Background: In qPCR the cycle at which signal appears reflects the starting amount.

Series [2] concerns BMMC. Nature of the series: Anti-osteoclastogenesis activity in M-CSF/RANKL-induced C57BL/6 mouse BMMC cells assessed as reduction in size of TRAP-positive osteoclasts at 0 to 10 uM incubated for 6 days with media replacement for every 2 days by TRAP-staining based light microscopic analysis. It counts as functional, cell-based. The conditions noted are these: dose 0-10 µM, time 6.0 day.

The subject of series [3] is BMMC. Nature of the series: Cytotoxicity against C57BL/6 mouse BMMC cells assessed as reduction in cell viability at 30 uM incubated for 48 hrs by MTT assay. It counts as toxicity, cell-based. (In general: Tetrazolium assays rely on reduction of a dye to a coloured formazan, in cell work by metabolically active cells.)
For series [4], the system named is BMMC. Kind of series: Anti-osteoclastogenesis activity in M-CSF/RANKL-induced C57BL/6 mouse BMMC cells assessed as reduction in F-actin ring formation incubated for 7 days with media replacement for every other day by TRITC phalloidin/DAPI-staining based fluorescence microscopic analysis. It counts as functional, cell-based. The conditions noted are these: dose 0-10 µM, time 7.0 day.

In series [5] the test system is BMMC. Nature of the series: Anti-osteoclastogenesis activity in M-CSF/RANKL-induced C57BL/6 mouse BMMC cells assessed as downregulation of TRAP gene expression incubated for 5 days by qRT-PCR analysis. It counts as functional, cell-based. The conditions noted are these: dose 0-10 µM, time 5.0 day.
Series [6] relates to BMMC. Nature of the series: Anti-osteoclastogenesis activity in M-CSF/RANKL-induced C57BL/6 mouse BMMC cells assessed as downregulation of C-Fos gene expression incubated for 5 days by qRT-PCR analysis. It counts as functional, cell-based. The conditions noted are these: dose 0-10 µM, time 5.0 day.
The test system of series [7] is BMMC. Nature of the series: Anti-osteoclastogenesis activity in M-CSF/RANKL-induced C57BL/6 mouse BMMC cells assessed as downregulation of NFATc1 gene expression incubated for 5 days by qRT-PCR analysis. It counts as functional, cell-based. The conditions noted are these: dose 0-10 µM, time 5.0 day.
Series [8] relates to BMMC. Nature of the series: Anti-osteoclastogenesis activity in M-CSF/RANKL-induced C57BL/6 mouse BMMC cells assessed as downregulation of cathepsin K gene expression incubated for 5 days by qRT-PCR analysis. It is filed as functional, cell-based. The conditions noted are these: dose 0-10 µM, time 5.0 day.
Series [9] has as its target MAP kinase p38 (Mus musculus) (UniProt P47811+O08911+Q9WUI1+Q9Z1B7). Kind of series: Inhibition of p38 phosphorylation in RANKL-induced C57BL/6 mouse BMMC cells at 5 uM pretreated for 6 hrs followed by RANKL stimulation and measured upto 60 mins by Western blot analysis. It is filed as cell-based. The conditions noted are these: time <= 7.0 hrs. For orientation: A western blot detects proteins with antibodies after separation by electrophoresis.

For series [10], the target named is c-Jun N-terminal kinase (Mus musculus) (UniProt Q91Y86+Q9WTU6+Q61831). Kind of series: Inhibition of JNK phosphorylation in RANKL-induced C57BL/6 mouse BMMC cells at 5 uM pretreated for 6 hrs followed by RANKL stimulation and measured upto 60 mins by Western blot analysis. It counts as cell-based. The conditions noted are these: time <= 7.0 hrs.
Sequence of c-Jun N-terminal kinase (Mus musculus) (Q61831 whole entry, looked up): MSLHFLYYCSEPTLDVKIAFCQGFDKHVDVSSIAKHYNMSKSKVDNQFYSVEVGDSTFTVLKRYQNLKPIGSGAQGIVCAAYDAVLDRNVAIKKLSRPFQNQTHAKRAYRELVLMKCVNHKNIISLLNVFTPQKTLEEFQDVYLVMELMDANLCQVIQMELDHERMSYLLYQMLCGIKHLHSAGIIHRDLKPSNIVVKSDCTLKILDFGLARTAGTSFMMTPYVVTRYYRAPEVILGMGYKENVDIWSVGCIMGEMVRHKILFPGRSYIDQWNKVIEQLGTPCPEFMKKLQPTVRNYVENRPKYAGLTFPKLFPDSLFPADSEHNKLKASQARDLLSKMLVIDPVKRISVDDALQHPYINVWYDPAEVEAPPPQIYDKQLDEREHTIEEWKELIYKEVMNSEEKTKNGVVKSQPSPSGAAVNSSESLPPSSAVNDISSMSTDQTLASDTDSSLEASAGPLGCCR
Sequence of c-Jun N-terminal kinase (Mus musculus) (Q91Y86 whole entry, looked up): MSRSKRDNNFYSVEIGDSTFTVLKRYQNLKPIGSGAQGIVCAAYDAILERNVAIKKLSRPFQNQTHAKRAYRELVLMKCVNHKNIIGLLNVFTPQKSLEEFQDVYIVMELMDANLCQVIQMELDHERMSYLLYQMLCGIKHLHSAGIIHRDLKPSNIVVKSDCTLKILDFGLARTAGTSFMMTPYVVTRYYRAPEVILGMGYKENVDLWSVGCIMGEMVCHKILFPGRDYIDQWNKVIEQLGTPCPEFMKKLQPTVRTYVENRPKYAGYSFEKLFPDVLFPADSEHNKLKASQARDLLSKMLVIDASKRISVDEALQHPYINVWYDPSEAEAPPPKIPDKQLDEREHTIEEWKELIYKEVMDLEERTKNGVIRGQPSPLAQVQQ
Sequence of c-Jun N-terminal kinase (Mus musculus) (Q9WTU6 whole entry, looked up): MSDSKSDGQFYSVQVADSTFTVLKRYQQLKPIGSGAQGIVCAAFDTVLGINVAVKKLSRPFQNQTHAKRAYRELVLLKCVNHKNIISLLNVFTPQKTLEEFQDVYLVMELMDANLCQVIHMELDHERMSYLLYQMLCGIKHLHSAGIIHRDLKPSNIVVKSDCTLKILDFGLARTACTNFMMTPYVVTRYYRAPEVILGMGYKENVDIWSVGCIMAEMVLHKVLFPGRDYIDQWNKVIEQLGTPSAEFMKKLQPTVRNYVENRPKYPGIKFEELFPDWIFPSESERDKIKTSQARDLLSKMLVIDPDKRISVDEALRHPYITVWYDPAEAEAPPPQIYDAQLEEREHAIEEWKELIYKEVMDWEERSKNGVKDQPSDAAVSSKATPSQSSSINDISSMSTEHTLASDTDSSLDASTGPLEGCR
In series [11] the test system is BMMC. Nature of the series: Effect on total JNK protein expression in RANKL-induced C57BL/6 mouse BMMC cells at 5 uM pretreated for 6 hrs followed by RANKL stimulation and measured upto 60 mins by Western blot analysis. It counts as functional, cell-based. The conditions noted are these: time <= 7.0 hrs.
The test system of series [12] is BMMC. Nature of the series: Effect on total p38 protein expression in RANKL-induced C57BL/6 mouse BMMC cells at 5 uM pretreated for 6 hrs followed by RANKL stimulation and measured upto 60 mins by Western blot analysis. It counts as functional, cell-based. The conditions noted are these: time <= 7.0 hrs.
Series [13] has as its system MC3T3-E1. Nature of the series: Induction of osteoblast differentiation in mouse MC3T3-E1 cells assessed as increase in ALP activity measured after 7 days by ALP staining based inverted microscopic analysis. It is filed as functional, cell-based. The conditions noted are these: dose 2.5-10 µM, time 7.0 day.
The test system of series [14] is MC3T3-E1. Kind of series: Cytotoxicity against mouse MC3T3-e1 cells assessed as reduction in cell viability at 2.5 to 10 uM measured after 7 days by MTT assay. The conditions noted are these: mc3t3-e1, 168 h, dose 2.5-10 µM, time 7 day. It is filed as toxicity, cell-based.
Series [15] deals with MC3T3-E1. Nature of the series: Induction of osteoblast differentiation in mouse MC3T3-E1 cells assessed as bone formation by measuring increase in Runx2 protein expression measured after 7 days by Western blot analysis. The conditions noted are these: dose 2.5-10 µM, time 7.0 day. It counts as functional, cell-based.
Series [16] relates to MC3T3-E1. Nature of the series: Induction of osteoblast differentiation in mouse MC3T3-E1 cells assessed as bone formation by measuring increase in Smad protein expression measured after 7 days by Western blot analysis. It counts as functional, cell-based. The conditions noted are these: dose 2.5-10 µM, time 7.0 day.
Series [17] in a line: Toxicity in OVX osteoporotic C57BL/6 mouse assessed as abnormal behaviors at 10 mg/kg, ip administered every other day for 8 weeks. It is filed as organism-based. The conditions noted are these: in vivo, 1344 h.
The nature of series [18]: Toxicity in OVX osteoporotic C57BL/6 mouse assessed as body weight loss at 10 mg/kg, ip administered every other day for 8 weeks and measured every week. It counts as organism-based. The conditions noted are these: in vivo, 1344 h.
The nature of series [19]: Toxicity in OVX osteoporotic C57BL/6 mouse assessed as effect on size and surface gloss of liver at 10 mg/kg, ip administered every other day for 8 weeks by H and E staining based analysis. It counts as organism-based. The conditions noted are these: in vivo, 1344 h.
Series [20] in a line: Toxicity in OVX osteoporotic C57BL/6 mouse assessed as effect on size and surface gloss of spleen at 10 mg/kg, ip administered every other day for 8 weeks by H and E staining based analysis. The conditions noted are these: in vivo, 1344 h. It is filed as organism-based.
The test system of series [21] is Mus musculus. Kind of series: Anti-osteoporosis activity in ovariectomized C57BL/6 mouse assessed as reduction in bone loss by measuring increase in bone volume/total bone volume (BV/TV) at 10 mg/kg, ip administered every other day for 8 weeks by micro-CT analysis. It counts as functional, organism-based.
Series [22] has as its system Mus musculus. Nature of the series: Anti-osteoporosis activity in ovariectomized C57BL/6 mouse assessed as reduction in bone loss at 10 mg/kg, ip administered every other day for 8 weeks by H and E staining based analysis. It counts as functional, organism-based.
The test system of series [23] is Mus musculus. Kind of series: Anti-osteoporosis activity in ovariectomized C57BL/6 mouse assessed as reduction in bone loss by measuring decrease in TRAP-positive cells around trabecula at 10 mg/kg, ip administered every other day for 8 weeks by TRAP staining based analysis. It counts as functional, organism-based.

On to `CC(C)(OCC(F)(F)F)C([Se]c1ccccc1)C(=O)Nc1ccncc1` (stereo not drawn), for which the Activity entry with BMMC [1] is “Dose-Dependent Effect”; in the series with BMMC [3] it was “Non-Toxic”; with BMMC [4], “Dose-Dependent Effect”; in the series with BMMC [5] it was “Dose-Dependent Effect”; with BMMC [6], “Dose-Dependent Effect”; with BMMC [7] it was “Dose-Dependent Effect”. The Activity result in the series with BMMC [8] was “Dose-Dependent Effect”; in the series with MC3T3-E1 [13], “Dose-Dependent Effect”; in the series on MC3T3-E1 [14], “Non-Toxic”; in the series on MC3T3-E1 [15] it was “Dose-Dependent Effect”; in the series with MC3T3-E1 [16] it was “Dose-Dependent Effect”; in series [17], “Non-Toxic”. Moreover, the Activity result in series [18], in series [19] and in series [20] was “Non-Toxic” each time. For the same compound, the result in the series on BMMC [2], in the series on Mus musculus [21], with Mus musculus [22] and in the series on Mus musculus [23] was Active. The inhibition entry in series [9] and in series [10] was “Active” throughout. Besides, the result in the series on BMMC [11] and in the series on BMMC [12] was inactive.
